Measurements reported in paper PMC6081956 (ChemMedChem, 2018).
“Also recorded” adds a separate entry of the source. Read-outs that look alike come from different tables or passages of the source.

Legend:
[1] = molecular target: T1, PXR-LBD-SRC1p (Homo sapiens, UniProt O75469); assay: Isothermal titration calorimetry; format: binding; settings: for N value (stoichiometry, single-site binding model) / -TΔS° / ΔH° / ΔG°: direct ITC; for -TΔS° / ΔH°: 25°C; for ΔG°: from KD by ΔG° = -RTlnKD
T1 sequence (O75469 with tags, fused parts or gaps): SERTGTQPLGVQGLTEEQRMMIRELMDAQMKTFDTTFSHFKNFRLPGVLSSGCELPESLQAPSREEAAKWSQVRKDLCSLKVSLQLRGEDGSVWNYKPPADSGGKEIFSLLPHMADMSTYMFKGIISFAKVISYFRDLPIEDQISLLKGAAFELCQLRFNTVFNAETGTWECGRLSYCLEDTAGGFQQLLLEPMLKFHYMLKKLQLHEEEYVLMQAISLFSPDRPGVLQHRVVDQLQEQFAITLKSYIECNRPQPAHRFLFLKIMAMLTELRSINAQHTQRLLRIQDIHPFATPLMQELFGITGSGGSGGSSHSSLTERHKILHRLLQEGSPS

[2] = 129 patients receiving 600 mg of EFV per day, cited from earlier work
[3] = tested on: PXR target gene Cyp3a11 mRNA; assay: Cyp3a11 mRNA expression; format: cell-based; settings: PXR-humanized mouse hepatocytes, 10 µM, 72 h, normalized to GAPDH
[4] = tested on: CYP3A4 mRNA; format: cell-based; settings: 10 µM 8-OHEFV co-incubated with 2 µM RIF, 48 h, primary human hepatocytes, p=0.004
[5] = tested on: PXR target gene Cyp3a11 mRNA; assay: Cyp3a11 mRNA expression; format: cell-based; settings: PXR-null mouse hepatocytes, 10 µM, 72 h
[6] = molecular target: T1, PXR-LBD-SRC1p; assay: Competitive isothermal titration calorimetry; format: binding; settings: for ΔG°: from KD of competitive ITC
[7] = molecular target: T2, PXR-LBD (Homo sapiens, UniProt O75469); assay: biochemical
T2 sequence (O75469 111-434): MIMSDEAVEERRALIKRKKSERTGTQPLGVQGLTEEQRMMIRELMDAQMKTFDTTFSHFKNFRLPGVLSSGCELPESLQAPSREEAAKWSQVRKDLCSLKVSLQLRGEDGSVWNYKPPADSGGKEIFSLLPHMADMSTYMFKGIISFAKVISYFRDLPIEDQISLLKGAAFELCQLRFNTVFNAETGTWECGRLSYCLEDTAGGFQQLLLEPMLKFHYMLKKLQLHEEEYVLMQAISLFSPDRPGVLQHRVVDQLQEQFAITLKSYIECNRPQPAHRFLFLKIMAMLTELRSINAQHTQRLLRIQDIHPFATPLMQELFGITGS

| SMILES | Kd [1] [µM] | -TΔS° [1] [kcal/mol•K] | ΔH° [1] [kJ/mol] | ΔG° [1] [kJ/mol] | Kd [6] [µM] | ΔG° [6] [kJ/mol] | further results |
| --- | --- | --- | --- | --- | --- | --- | --- |
| O=C1Nc2c(O)cc(Cl)cc2[C@@](C#CC2CC2)(C(F)(F)F)O1 [8-OHEFV, (S)-6-chloro-4-(cyclopropylethynyl)-8-hydroxy-4-(trifluoromethyl)-1,4-dihydro-2H-benzo[d][1,3]oxazin-2-one] | 7.9 ± 7.7 | −3.8 ± 1.5 | -13 ± 5.02 | -28.9 ± 1.3 | – | – | N value (stoichiometry, single-site binding model) [1]: approximately 1.0; plasma concentration ([2]; at 4 weeks ref 7): 6.51 ± 0.87 µM; plasma concentration ([2]; at 16 weeks ref 7): 6.84 ± 1.06 µM; Cyp3a11 mRNA levels, fold change from DMSO control [3]: did not result in modulation of Cyp3a11 mRNA levels; also recorded: did not result in a change in Cyp3a11 mRNA levels; decrease in CYP3A4 mRNA induction as compared to 2 µM RIF alone [4]: ~20% |
| O=C1Nc2ccc(Cl)cc2[C@@](C#CC2CC2)(C(F)(F)F)O1 [EFV, (S)-6-chloro-4-(cyclopropylethynyl)-4-(trifluoromethyl)-1,4-dihydro-2H-benzo[d][1,3]oxazin-2-one, reference compound] | – | −4.9 ±0.4 | -8.79 ± 1.3 | -28.9 ± 0.84 | – | – | N value (stoichiometry, single-site binding model) [1]: approximately 1.0; plasma concentration ([2]; at 4 weeks ref 7): 10.61 ± 1.11 µM; plasma concentration ([2]; at 16 weeks ref 7): 10.33 ± 0.98 µM; Cyp3a11 mRNA abundance [5]: no impact on Cyp3a11 mRNA abundance |
| CCCC#CC1(C(F)(F)F)OC(=O)Nc2ccc(Cl)cc21 (stereo not shown) [analog 4, 6-chloro-4-(pent-1-yn-1-yl)-4-(trifluoromethyl)-1,4-dihydro-2H-benzo[d][1,3]oxazin-2-one] | 78.7 ± 15.3 | −4.5 ±0.2 | -4.6 ± 0.42 | -23.4 ± 0.42 | – | – | – |
| COc1ccc(CNc2ccc(Cl)cc2[C@](O)(C#CC2CC2)C(F)(F)F)cc1 [analog 5, (R)-2-(5-chloro-2-((4-methoxybenzyl)amino)phenyl)-4-cyclopropyl-1,1,1-trifluorobut-3-yn-2-ol] | – | – | – | – | 14.5 ± 4.3 | -27.6 ± 0.42 | – |
| COc1ccc(CNc2ccc(Cl)cc2[C@@](O)(C#CC2CC2)C(F)(F)F)cc1 [analog 6, (S)-2-(5-chloro-2-((4-methoxybenzyl)amino)phenyl)-4-cyclopropyl-1,1,1-trifluorobut-3-yn-2-ol] | – | – | – | – | 9.5 ± 2.7 | -28.5 ± 0.84 | – |
| COc1ccc(C(=O)Nc2ccc(Cl)cc2C(O)(C#CC2CC2)C(F)(F)F)cc1 (stereo not shown) [analog 7, N-(4-chloro-2-(4-cyclopropyl-1,1,1-trifluoro-2-hydroxybut-3-yn-2-yl)phenyl)-4-methoxybenzamide] | – | – | – | – | 4.2 ± 1.1 | -30.5 ± 0.84 | Cyp3a11 mRNA levels, fold change from DMSO control [3]: 37 fold |
| FC(F)(F)[C@@]1(C#CC2CC2)OCNc2ccc(Cl)cc21 [analog 8, (S)-6-chloro-4-(cyclopropylethynyl)-4-(trifluoromethyl)-1,4-dihydro-2H-benzo[d][1,3]oxazine] | 14.9 ± 2.6 | −4.8 ±0.3 | -7.53 ± 0.42 | -27.6 ± 0.42 | – | – | – |
| COc1ccc(C2Nc3ccc(Cl)cc3[C@@](C#CC3CC3)(C(F)(F)F)O2)cc1 (stereo partly drawn) [analog 9, (S)-6-chloro-4-(cyclopropylethynyl)-2-(4-methoxyphenyl)-4-(trifluoromethyl)-1,4-dihydro-2H-benzo[d][1,3]oxazine] | – | – | – | – | – | – | IC50 [7]: 39.3 ± 24.1 µM |
| Nc1ccc(Cl)cc1C(=O)C(F)(F)F [analog 10, 1-(2-amino-5-chlorophenyl)-2,2,2-trifluoroethan-1-one] | – | – | – | – | > 400 | – | Cyp3a11 mRNA levels, fold change from DMSO control [3]: no change in the Cyp3a11 mRNA levels |
| O=C1Oc2ccc(Cl)cc2C(C#CC2CC2)(C(F)(F)F)O1 (stereo not shown) [analog 15, 6-chloro-4-(cyclopropylethynyl)-4-(trifluoromethyl)-4H-benzo[d][1,3]dioxin-2-one] | 10.9 ± 1.8 | −5.1 ±0.2 | -6.69 ± 0.84 | -28.5 ± 0.42 | – | – | – |
| O=C1Cc2ccc(Cl)cc2C(C#CC2CC2)(C(F)(F)F)O1 (stereo not shown) [analog 16, 7-chloro-1-(cyclopropylethynyl)-1-(trifluoromethyl)isochroman-3-one] | – | – | – | – | 10.5 ± 1.5 | -28.5 ± 0.84 | – |
